The values that follow are results of earlier work, collected in patent US20200245614A1, “AGROCHEMICAL EMULSIFIABLE CONCENTRATE COMPOSITION” (priority 2017, published 2020).

For the first data set the following is noted: n-octanol/water.
`CCCCOCCOCCOCCCC` [Composition C-27, Dibutyl diglycol]: the LogPow value is on record as 1.92.
As to `CCCCN1CCCC1=O` [Composition C-16, N-Butylpyrrolidone], the LogPow value is 1.27.
For the molecule Xylene [Composition B-2], the LogPow value was 3.15.
Regarding `CCCCOC(=O)OCCCC` [Composition B-3, Di-n-butyl carbonate], the LogPow value is given as 3.47.
With `COCCOCCOCCO` [Composition C-17, Triethylene glycol monomethyl ether], the LogPow value is −1.12.
With `O=C1CCCO1` [Composition C-13, γ-Butyrolactone], the LogPow value is listed as −0.566.
On to `CCCCCCCCCCCC(=O)OC` [Composition B-5, Methyl laurate], for which the LogPow value is given as 5.41.
For `COCC(C)O` (stereo not shown) [Composition C-9, Propylene glycol monomethyl ether], the LogPow value is −0.342.
Take `CN1CCCC1=O` [Composition C-10, N-methyl-2-pyrrolidone]: the LogPow value is listed as −0.38.
`CC1COC(=O)O1` (stereo not shown) [Composition C-12, Propylene carbonate]: the LogPow value is −0.5.
On to `CC(O)COc1ccccc1` (stereo not shown) [Composition C-19, Phenoxypropanol], for which the LogPow value was 1.51.
Regarding `CC(C)COC(=O)CCCCC(=O)OCC(C)C` [Composition B-4, Diisobutyl adipate], the LogPow value was 3.70.
Turning to `CCCCCO` [pentanol], the LogPow value was 1.51.
As for `CCCCC(CC)COCCOCCO` (stereo not shown) [Composition C-28, 2-ethylhexyl diglycol], the LogPow value was 2.
Take `COC(C)COC(C)CO` (stereo not shown) [Composition C-11, Dipropylene glycol methyl ether]: the LogPow value is given as −0.46.
Turning to `COC(=O)C(C)CCC(=O)N(C)C` (stereo not shown) [Composition C-21, 5-(Dimethylamino)-2-methyl-5-oxopentanoic acid methyl ester], the LogPow value is reported as 0.39.
As for `CCCCOC(C)=O` [Composition C-26, Butyl acetate], the LogPow value is on record as 1.82.
`O=C1CCCCC1` [Composition C-5, Cyclohexanone]: the LogPow value is recorded as 0.86.
Turning to `CC(C)=O` [acetone], the LogPow value is −0.24.
Consider `OC1CCCCC1` [Composition C-4, Cyclohexanol], for which the LogPow value is on record as 1.2.
For the molecule `CCCCCCCCO` [Composition C-24, Octanol], the LogPow value is on record as 3.
As for `COCCOCCO` [Composition C-1, Diethylene glycol monomethyl ether], the LogPow value is on record as −1.18.
Regarding `CCCCCCCC/C=C\CCCCCCCC(=O)OC` [Composition C-22, Methyl oleate], the LogPow value is recorded as 7.45.
As to `CCC(C)=O` [methyl ethyl ketone], the LogPow value is 0.29.
Turning to `CO` [methanol], the LogPow value is listed as −0.82.
For `OCCOCc1ccccc1` [Composition C-20, Benzyl glycol], the LogPow value is listed as 1.11.
`CCCCOCCOCCO` [Composition C-6, Butyl diglycol]: the LogPow value is listed as 0.56.

The same data set, now with this note: n-octanol/water; listed as gamma-butyl lactone.
Turning to `O=C1CCCO1` [Composition C-13, γ-Butyrolactone], the LogPow value is listed as −0.57.
